Measurements as given in US20130344053A1, “Methods of Modifying Insulin Signaling Using Biliverdin Reductase (BVR) and BVR Derived Peptides” (University of Rochester, priority 2010, published 2013).
Entries after “also recorded” stand apart in the source; their conditions may differ.

How the values were obtained:
[1] = system: rat smooth muscle cells (PAC1); experiment: Glucose uptake in PAC1 cells (IGF-dependent); type: cell-based
Method: Glucose uptake was tested as described infra. Cells were starved in low glucose serum-depleted DMEM for 20 hours prior to transfer to PBS containing CaCl2, MgCl2. After 2 hrs myristoylated peptides were added to the medium for 2 hours. Thereafter, IGF-1 (50 ng/ml) or insulin (100 nM) was added (10 min) and glucose uptake was tested for 3 min in the presence of methyl-D-glucose,3-O-[methyl-3H]. Subsequently cells were washed 3 times in cold PBS and solubilized in NaOH (0.05 mM). Aliquots were measured for radioactivity. Non-specific binding or diffusion were tested by addition of 300 mM glucose to the cells. This value was deducted from the total counts (on the average <20%) and results were normalized for protein concentration.
(§1) FIGS. 15A-B show the effect of hBVR-based peptides on IGF-dependent glucose uptake in rat smooth muscle cells (PAC1) (FIG. 15A) and insulin-dependent glucose uptake in human epithelial kidney (HEK) cells (FIG. 15B). Cells were treated as described for FIG. 14 and glucose uptake was measured as described infra.
(§2) The therapeutic utility of various BVR peptides with regard to their ability to modify insulin and insulin growth factor (IGF) mediated cellular glucose uptake was evaluated. Human embryonic kidney cells (HEK293) or rat aortic smooth muscle cells (PAC) were starved in low glucose serum-depleted DMEM for twenty hours prior to transfer to PBS containing CaCl2, MgCl2. After two hours, myristoylated peptides were added to the medium for two additional hours. Thereafter, IGF-1 (50 ng/ml) or insulin (100 nM) was added (10 min) and glucose uptake was tested for three minutes in the presence of methyl-D-glucose,3-O-[methyl-3H]. Subsequently, cells were washed three times in cold PBS and solubilized in NaOH (0.05 mM). Aliquots were measured for radioactivity. Non-specific binding or diffusion was tested by addition of 300 mM glucose to the cells. This value was deducted from the total counts (on the average <20%) and results were normalized for protein concentration.

IRK = target: T1, IRK (Homo sapiens, UniProt P06213); experiment: IRK autophosphorylation in the presence of hBVR-derived peptides; type: biochemical; conditions: 20 μM myristoylated hBVR-based peptide, 45 min, purified IRK
T1 construct: the intracellular kinase domain of the insulin receptor; purchased Biomol International (Plymouth, Pa.)
T1 sequence (P06213 980-1382 limits assumed): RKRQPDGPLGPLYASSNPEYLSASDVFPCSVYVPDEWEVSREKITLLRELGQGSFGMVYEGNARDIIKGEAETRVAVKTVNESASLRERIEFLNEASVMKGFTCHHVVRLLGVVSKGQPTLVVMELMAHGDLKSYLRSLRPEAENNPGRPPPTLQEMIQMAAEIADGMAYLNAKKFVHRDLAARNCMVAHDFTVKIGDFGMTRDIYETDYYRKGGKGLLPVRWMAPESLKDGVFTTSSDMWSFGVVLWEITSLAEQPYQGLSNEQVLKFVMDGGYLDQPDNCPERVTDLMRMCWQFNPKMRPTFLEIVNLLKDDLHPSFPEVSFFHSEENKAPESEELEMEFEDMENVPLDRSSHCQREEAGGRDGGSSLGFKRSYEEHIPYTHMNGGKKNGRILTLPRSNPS
Method: FIGS. 13A-B show the effect of hBVR-derived peptides on autophosphorylation of IRK (FIG. 13A) and IRK kinase activity (FIG. 13B). Purified IRK was incubated in the absence or presence of 20 μM of the identified myristoylated hBVR-based peptides for 45 min in an assay system containing 50 mM Hepes pH 7.4, 20 mM MCl2,1 mM EGTA and 20 μM ATP labeled with 5 uCi gamma-P32-ATP. The reaction was stopped with the addition of phosphoric acid and aliquots were applied to P81 Whatman filters. Filters were extensively washed and subjected to counting in a scintillation counter. Total counts of radioactivity of each sample were corrected for non specific binding. […] Activity of IRK toward its substrate, IRS peptide, was tested in the presence of hBVR-based peptides. Experiments were conducted as in described for FIG. 13A with addition of IRS peptide as the substrate.
The effect of hBVR-derived peptides on autophosphorylation of IRK (FIG. 13A) and IRK kinase activity (FIG. 13B) was also investigated.

[2] = Blood glucose levels after tail vein injection; type: in vivo; conditions: Sprague Dawley rats, 11 μg/g body weight, measured at 20, 40, 60, 100 min
Method: FIG. 16 is a graph illustrating the blood glucose levels measured over time course following tail vein injection to Sprague Dawley rats of the KKRILHC (SEQ ID NO: 60) peptide in solution (11 μg/g body weight) or a vehicle control solution.
In an experiment designed to evaluate the ability of the C-terminal KKRILHC BVR peptide fragment (SEQ ID NO: 60) to modulate insulin signaling and blood glucose levels, Sprague Dawley rats were administered, via tail vein injection, the KKRILHC peptide (SEQ ID NO: 60) in solution (11 μg/g body weight) or a vehicle control solution. […] This increase in blood glucose levels was at 20, 40, and 60 minutes following administration, gradually decreasing over the 100 minute time course of assessment.

[3] = system: human epithelial kidney (HEK) cells; experiment: Insulin-dependent glucose uptake in HEK cells; type: cell-based; conditions: myristoylated peptide 2 h, then insulin 100 nM 10 min
Method: as §1, §2

BVR [4] = experiment: BVR tyrosine phosphorylation in insulin-treated 293A cells (immunoprecipitation/immunoblot); type: cell-based, human; conditions: within 8 min after insulin treatment
Method: FIG. 12A-D illustrates that “knock-down” BVR and Y^198 detection increased glucose uptake into 293A cells upon insulin induction. As shown in the graph of FIG. 12A, insulin treatment increases BVR activity. 293A cells were treated with insulin (50 nM) and subsequently used at indicated time points for BVR activity measurement. […] Purified BVR was phosphorylated by IRK for the indicated periods. Reactions were terminated by diluting with PBS and freezing at −20° C. BVR activity was determined as in FIG. 12A, and normalized to that of the control (43.8 μmol per min per mg). […] 293A cells were incubated with insulin and after 8 min or 30 min, subjected to immunoprecipitation using anti-human BVR antibodies. The phosphorylated BVR was visualized by immunoblotting using anti-tyrosine antibodies. ECL system was used for visualization of phosphorylated BVR. In FIG. 12D, the effect of insulin treatment on glucose uptake cells infected with siBVR or Y^198 mutant BVR were treated with insulin for 15 min and subsequently incubated in 1 ml PBS containing 5 mM glucose and 1 μCi/ml-2-deoxy-1 [^3H] glucose (2DG) for 15 min. Cells were washed with cold PBS and lysed by addition of 1% (w/v) SDS to each well. […]
293A Cells were plated in 10 cm plates and transfected with appropriate plasmids. […] Protein concentration was determined by Bradford assay (Bio-Rad, Hercules, Calif.). […]

BVR [5] = experiment: BVR reductase activity in insulin-treated 293A cells; type: cell-based, human; conditions: insulin 50 nM, measured 1 h after treatment
Method: FIG. 12A-D illustrates that “knock-down” BVR and Y^198 detection increased glucose uptake into 293A cells upon insulin induction. As shown in the graph of FIG. 12A, insulin treatment increases BVR activity. 293A cells were treated with insulin (50 nM) and subsequently used at indicated time points for BVR activity measurement. […] Purified BVR was phosphorylated by IRK for the indicated periods. Reactions were terminated by diluting with PBS and freezing at −20° C. BVR activity was determined as in FIG. 12A, and normalized to that of the control (43.8 μmol per min per mg). […] 293A cells were incubated with insulin and after 8 min or 30 min, subjected to immunoprecipitation using anti-human BVR antibodies. The phosphorylated BVR was visualized by immunoblotting using anti-tyrosine antibodies. ECL system was used for visualization of phosphorylated BVR. […]
293A cells treated with insulin were lysed in buffer containing a protease inhibitor cocktail and phosphatase inhibitors (10 mM NaF, 1 mM NaVO4). BVR activity was measured at pH 6.7 using NADH as the cofactor as described previously (Huang et al., J. Biol. Chem. 264:7844-9 (1989), which is hereby incorporated by reference in its entirety). The rate of conversion of biliverdin to bilirubin was determined as the increase in absorbance at 450 nm at 25° C. Specific activity is expressed as μmol of bilirubin/min/mg of protein.

KYCCSRK (Biliverdin reductase derived peptide) [C-terminal hBVR peptide, amino acids 290-296 of BVR; mimics insulin signaling]
effectiveness in enhancing cellular glucose uptake compared with IGF-1 ([1]; PAC1 cells, IGF-1 50 ng/ml): as effective as IGF-1 | cellular glucose uptake in PAC1 cells ([1]; myristoylated peptide 2 h, uptake of methyl-D-glucose,3-O-[methyl-3H] for 3 min): enhances cellular glucose uptake in PAC1 cells in a dose-dependent manner; also recorded: increases glucose uptake in PAC1 cells in a concentration dependent manner | IRK autophosphorylation (IRK): increases IRK autophosphorylation

KKRILHC (Biliverdin reductase derived peptide) [hBVR peptide, amino acids 275-281 of BVR]
blood glucose levels compared to vehicle controls [2]: immediate increase in the blood glucose levels | IGF-mediated cellular glucose uptake in PAC1 cells ([1]; myristoylated peptide 2 h, then IGF-1 50 ng/ml 10 min): inhibit IGF-mediated cellular glucose uptake | insulin mediated cellular glucose uptake in HEK cells [3]: antagonizing insulin mediated cellular glucose uptake

insulin: Human insulin purchased from Sigma-Aldrich
BVR tyrosine phosphorylation (BVR [4]): dramatic increase in phosphorylation | increase in BVR reductase activity (BVR [5]): 2 fold
